# Literature values as cited in patent US11504326B2, “Lipid emulsion therapy for treating acute cannabinoid intoxication” (priority 2019, dated 2022).
# Like-named read-outs stand apart in the source and are kept apart here.
# How the values were obtained:
# [1] = in vivo
# psychoactive effects = conditions: for dose that impairs attention, concentration, short-term memory, and executive functioning: adolescents and adults
smiles,measurement,setting,value
"CCCCCc1cc(O)c2c(c1)OC(C)(C)[C@@H]1CCC(C)=C[C@@H]21 [THC, tetrahydrocannabinol]",protein-bound,[1],95-99%
same,volume of distribution,[1],2.5 to 3.5 L/kg
same,"dose that impairs attention, concentration, short-term memory, and executive functioning",psychoactive effects; ingested,5 to 20 mg
same,dose at which psychotropic effects occur,"psychoactive effects; ingested, naive users",5 to 20 mg
same,"dose that impairs attention, concentration, short-term memory, and executive functioning",psychoactive effects; inhaled,2 to 3 mg
same,dose sufficient to produce drug effects,"psychoactive effects; inhaled, naïve user",2 to 3 mg
